*1 amine or outer side, *2 acyl side, *3 side chain or, on linkers, in order; H or OH if unused. Where a SMILES comes first, the peptide text is derived from it. Bridges are numbered along the chain shown (N, C = ends). [ ]: non-standard residue; d: D form. The star is where a group is joined. hPhe(3,5-F2-4-CF3) = N[C@@H](CCc1cc(F)c(C(F)(F)F)c(F)c1)C(=O)O; X6 = CC(C)(C)CCN([C@@H](Cc1ccc(C(F)(F)F)cc1)C(=O)[*:2])[*:1]; hPhe(3-Cl-4-CF3) = N[C@@H](CCc1ccc(C(F)(F)F)c(Cl)c1)C(=O)O; NPrPhe(4-CF3) = CCCN[C@@H](Cc1ccc(C(F)(F)F)cc1)C(=O)O; NMeGly(cPent) = CN[C@H](C(=O)O)C1CCCC1; NMeD = CN[C@@H](CC(=O)O)C(=O)O; NMeL = CN[C@@H](CC(C)C)C(=O)O; αMeL = CC(C)C[C@](C)(N)C(=O)O; Morpholide = C1CN(*)CCO1; NMeA = CN[C@@H](C)C(=O)O; Ac5c = NC1(C(=O)O)CCCC1; Aze = O=C(O)[C@@H]1CCN1; Sar = CNCC(=O)O
Tests used:
[1] = biological target: GDP-bound NRAS wild-type protein (Homo sapiens, UniProt P01111); assay: Binding to NRAS by surface plasmon resonance (SPR), Single Cycle Kinetics
GDP-bound NRAS wild-type protein, sequence (P01111 whole entry): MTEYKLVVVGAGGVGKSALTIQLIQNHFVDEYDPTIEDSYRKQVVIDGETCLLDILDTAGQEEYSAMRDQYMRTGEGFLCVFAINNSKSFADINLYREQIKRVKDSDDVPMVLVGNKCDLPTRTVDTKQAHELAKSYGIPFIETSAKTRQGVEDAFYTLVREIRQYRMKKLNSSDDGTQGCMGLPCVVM

[2] = biological target: GDP-bound HRAS wild-type protein (Homo sapiens, UniProt P01112); assay: Binding to HRAS by surface plasmon resonance (SPR), Single Cycle Kinetics
GDP-bound HRAS wild-type protein, sequence (P01112 whole entry): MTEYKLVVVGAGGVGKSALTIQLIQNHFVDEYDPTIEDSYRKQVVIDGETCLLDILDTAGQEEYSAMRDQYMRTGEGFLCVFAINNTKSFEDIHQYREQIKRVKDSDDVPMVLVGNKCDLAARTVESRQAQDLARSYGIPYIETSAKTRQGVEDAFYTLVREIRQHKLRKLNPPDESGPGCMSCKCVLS

[3] = KD ratio, GDP-bound NRAS wild-type vs GDP-bound KRAS wild-type, SPR
[4] = KD ratio, GDP-bound HRAS wild-type vs GDP-bound KRAS wild-type, SPR

## CCC[C@H]1C(=O)N[C@@H]([C@@H](C)CC)C(=O)N(C)CC(=O)N(C)[C@H]2C/C=C\CCN(C2=O)[C@@H](Cc2ccc(C)cc2)C(=O)N(C)CC(=O)N[C@@H](CCc2ccc3c(C)c(C)n(C)c3c2)C(=O)N2C[C@H](OCC)C[C@H]2C(=O)NC2(CC(C)(C)C2)C(=O)N(C)[C@@H](C(CC)CC)C(=O)N(C)[C@H](C(=O)N(C)C)CC(=O)N1C [PP2906]
[1]; KD ratio NRAS/KRAS, class symbols
  NRAS/KRAS (ratio of KD value with respect to GDP-bound NRAS wild-type protein to KD value with respect to KRAS): A (a compound having 10 or more and less than 20 is denoted as A)
[2]; KD ratio HRAS/KRAS, class symbols
  HRAS/KRAS (ratio of KD value with respect to GDP-bound HRAS wild-type protein to KD value with respect to KRAS): A (a compound having 10 or more and less than 20 is denoted as A)

## CCO[C@@H]1C[C@H]2C(=O)NC3(CCC3)C(=O)N(C)[C@@H](C3CCCC3)C(=O)N(C)[C@H](C(=O)N3CCOCC3)CC(=O)N(C)[C@@H](Cc3ccc(C#N)cc3)C(=O)N[C@@H]([C@@H](C)CC)C(=O)N(C)CC(=O)N(C)[C@H]3CCCCCN(C3=O)[C@@H](Cc3ccc(F)cc3)C(=O)N(C)CC(=O)N[C@@H](CCc3cc(F)c(C(F)(F)F)c(F)c3)C(=O)N2C1 [PP1187]
[1]; [3]
  NRAS/KRAS (ratio of KD value with respect to NRAS to KD value with respect to KRAS): B (a compound having 3 or more and less than 10 is denoted as B)
[2]; [4]
  HRAS/KRAS (ratio of KD value with respect to HRAS to KD value with respect to KRAS): B (a compound having 3 or more and less than 10 is denoted as B)

## CC[C@H](C)[C@@H]1NC(=O)[C@H](CC)N(C)C(=O)C[C@@H](C(=O)N(C)C)N(CC)C(=O)[C@H](C2CCCC2)N(C)C(=O)C2(CCC2)NC(=O)[C@@H]2C[C@H](N3CCC(F)(F)CC3)CN2C(=O)[C@H](CCc2cc(F)c(C(F)(F)F)c(F)c2)NC(=O)CN(C)C(=O)[C@H](Cc2ccc(C(F)(F)F)cc2)N2CCCC[C@@H](C2=O)N(C)C(=O)CN(C)C1=O [PP0659]
[1]; KD ratio NRAS/KRAS, SPR
  NRAS/KRAS (ratio of KD value with respect to GDP-bound NRAS wild-type protein to KD value with respect to KRAS): B (a compound having 3 or more and less than 10 is denoted as B)
[2]; KD ratio HRAS/KRAS, SPR
  HRAS/KRAS (ratio of KD value with respect to GDP-bound HRAS wild-type protein to KD value with respect to KRAS): B (a compound having 3 or more and less than 10 is denoted as B)

## CCCN1C(=O)CN(C)C(=O)[C@@H]2CCN2C(=O)[C@H]([C@@H](C)CC)NC(=O)[C@H](CC(C)C)N(C)C(=O)C[C@@H](C(=O)N2CCOCC2)N(C)C(=O)[C@H](C2CCCC2)N(C)C(=O)[C@](C)(CC(C)C)NC(=O)[C@@H]2CCCN2C(=O)[C@H](CCc2cc(F)c(C(F)(F)F)c(F)c2)NC(=O)CN(C)C(=O)[C@@H]1Cc1ccc(C(F)(F)F)cc1 [PP0776] ([NMeL]I[Aze][Sar][NPrPhe(4-CF3)][Sar][hPhe(3,5-F2-4-CF3)]P[αMeL][NMeGly(cPent)][NMeD]-Morpholide; lactam N-11)
[1]; KD ratio NRAS/KRAS, SPR
  NRAS/KRAS (ratio of KD value with respect to GDP-bound NRAS wild-type protein to KD value with respect to KRAS): B (a compound having 3 or more and less than 10 is denoted as B)
[2]; KD ratio HRAS/KRAS, SPR
  HRAS/KRAS (ratio of KD value with respect to GDP-bound HRAS wild-type protein to KD value with respect to KRAS): B (a compound having 3 or more and less than 10 is denoted as B)

## CCCOC[C@H]1C(=O)N[C@@H]([C@@H](C)CC)C(=O)N(C)CC(=O)N(C)[C@H]2C/C=C\CCN(C2=O)[C@@H](Cc2ccc(C(F)(F)F)cc2)C(=O)N(C)CC(=O)N[C@@H](CCc2ccc(C(F)(F)F)c(OC)c2)C(=O)N2C[C@@H](C)C[C@H]2C(=O)NC2(CCC2)C(=O)N(C)[C@@H](C2CCCC2)C(=O)N(C)[C@H](C(=O)N(C)CC)CC(=O)N1C [PP2027]
[1]; [3]
  NRAS/KRAS (ratio of KD value for NRAS to KD value for KRAS): A (a compound having 10 or more and less than 20 is denoted as A)
[2]; [4]
  HRAS/KRAS (ratio of KD value for HRAS to KD value for KRAS): B (a compound having 3 or more and less than 10 is denoted as B)

## CC[C@H](C)[C@@H]1NC(=O)[C@H](CC(C)C)N(C)C(=O)C[C@@H](C(=O)N2CCOCC2)N(C)C(=O)[C@H](C2CCCC2)N(C)C(=O)C2(CCCC2)NC(=O)[C@@H]2CCCN2C(=O)[C@H](CCc2ccc(C(F)(F)F)c(Cl)c2)NC(=O)CN(C)C(=O)[C@H](Cc2ccc(C(F)(F)F)cc2)N(CCC(C)(C)C)C(=O)[C@@H]2CCN2C(=O)[C@H](C)N(C)C1=O [PP0113] ([NMeL]I[NMeA][Aze][X6][Sar][hPhe(3-Cl-4-CF3)]P[Ac5c][NMeGly(cPent)][NMeD]-Morpholide; lactam N-11)
[1]; KD ratio NRAS/KRAS, SPR
  NRAS/KRAS (ratio of KD for GDP-bound NRAS wild-type to KD for KRAS): C (A compound having a KD ratio of 0.1 or more and less than 3 is denoted as C)
[2]; KD ratio HRAS/KRAS, SPR
  HRAS/KRAS (ratio of KD for GDP-bound HRAS wild-type to KD for KRAS): B (a compound having 3 or more and less than 10 is denoted as B)

## CC[C@H](C)[C@@H]1NC(=O)[C@H](CC(C)C)N(C)C(=O)C[C@@H](C(=O)N(C)C)N(C)C(=O)[C@H](C2CCCC2)N(C)C(=O)C2(CCCC2)NC(=O)[C@@H]2CC(F)(F)CN2C(=O)[C@H](CCc2cc(F)c(C(F)(F)F)c(F)c2)NC(=O)CN(C)C(=O)[C@H](Cc2ccc(C(F)(F)F)cc2)N2CCCC[C@@H](C2=O)N(C)C(=O)CN(C)C1=O [PP0576]
[1]; KD ratio NRAS/KRAS, SPR
  NRAS/KRAS (ratio of KD value with respect to GDP-bound NRAS wild-type protein to KD value with respect to KRAS): C (A compound having a KD ratio of 0.1 or more and less than 3 is denoted as C)
[2]; KD ratio HRAS/KRAS, SPR
  HRAS/KRAS (ratio of KD value with respect to GDP-bound HRAS wild-type protein to KD value with respect to KRAS): B (a compound having 3 or more and less than 10 is denoted as B)

Source: patent US20250230193A1, “CYCLIC COMPOUND HAVING SELECTIVE KRAS INHIBITORY EFFECT ON HRAS AND NRAS” (CHUGAI SEIYAKU KABUSHIKI KAISHA, priority 2022, published 2025)
